Results published in US20200129524A1, “PERSONALIZED CONTRACEPTIVE FORMULATIONS” (Agile Therapeutics, Inc., priority 2017, published 2020).
Several values for one entry are separate records, joined by “and”; a condition that tells them apart may be missing. Equal values may be shown once.

System: healthy women
Assay: LNG level and required dose calculated from the trial's pregnancy rates (equations 2-4)
Type: in vivo
Settings: for LNG Level / Required Dose: 30 μg/day EE; for LNG Required Dose: range for pregnancy rates between 3% and 1.5%, EE 30 ug/day
From the text: There is an important unmet need pertaining to the determination of the amount of progestin required to provide contraceptive effectiveness to all women based on their BMI or body weight. Without intending to be bound to a particular understanding of mechanism of action, this invention is premised in part on the understanding that contraceptive effectiveness is based on the principle that there is a physical reaction or binding of a drug to its receptor and that therefore drug concentration will play an important part in contraceptive effectiveness. Further, by knowing the effect of a progestin amount (drug concentration) on contraceptive effectiveness on different BMI or body weight women, we can determine the amounts needed to provide effectiveness for any woman of known BMI or body weight. Given that contraceptive hormones interact reversibly with their receptors and assuming the resultant effect is proportional to the receptors occupied, a relationship between the effect and the free concentration of drug can be written as (Goodman and Gilman's Pharmaceutical Basis of Therapeutics, 8th edition, p. 44) Effect=Maximal effect (D)/(Kd+D) (equation 1) Where D is the concentration of the circulating free drug and Kd is the dissociation constant for the drug-drug receptor complex, i.e., the ratio of the rate constants of the forward and dissociation binding reactions. The steady state concentration D of the circulating free drug in the plasma is correlated to the dosage rate, by the equation (Goodman and Gilman's Pharmaceutical Basis of Therapeutics, 8th edition, p. 21), Dosage Rate=CL×D (CL is the clearance and it is constant for any specific drug). Therefore D=Dosage rate/CL. Substituting this in equation 1 one obtains Effect=Maximal effect×Dosage rate/CL/(Kd+Dosage rate/CL) (equation 2) […] Note that when equation 3 is substituted into equation 2 the clearance CL cancels out and is not involved in the calculations. Using the above formulas and isolating for D yields this equation: D=(Kd*Effect)/(1−Effect) (equation 4) […] They represent the relative dosage compared to that of the women in the 90 to 120 pound category (i.e. those that had 1.5% pregnancy rate). […] Therefore, D=(1.827*0.973)/(0.027) (equation 5) D=67 μg/day (equation 6) Required Dose=120×120/67=215 (equation 7). We consider the maximum acceptable percent pregnancy for 100 women over a period of one year to be 3%. […] The same analysis can be performed using the BMI of the women. […] The same analysis as performed for the required dosage based on women's body weight was performed using BMI and the data are shown in Tables 4 and 5 and plotted in FIG. 4. Although it may be easier for the medical practitioner to use the body weight of the subject in the treatment process, they can also use the BMI. It is therefore another object of the invention to treat women in a personalized manner depending on their BMI.

[1] = 1.5% pregnancy rate, BMI >17.5 ≤ 22.5
[2] = 1.5% pregnancy rate, BMI >22.5 ≤ 27.5
[3] = 1.5% pregnancy rate, BMI >27.5 ≤ 32.5
[4] = 1.5% pregnancy rate, BMI >32.5 ≤ 37.5
[5] = 1.5% pregnancy rate, BMI >37.5 ≤ 42.5
[6] = 1.5% pregnancy rate, BMI >42.5 ≤ 47.5
[7] = 1.5% pregnancy rate, BMI >47.5 ≤ 52.5
[8] = 1.5% pregnancy rate, weight 90 ≥ W <120 lbs
[9] = 1.5% pregnancy rate, weight 120 ≥ W <150 lbs
[10] = 1.5% pregnancy rate, weight 150 ≥ W <180 lbs
[11] = 1.5% pregnancy rate, weight 180 ≥ W <210 lbs
[12] = 1.5% pregnancy rate, weight 210 ≥ W <240 lbs
[13] = 1.5% pregnancy rate, weight 240 ≥ W <270 lbs
[14] = 1.5% pregnancy rate, weight 270 ≥ W lbs
[15] = 3% pregnancy rate, BMI >17.5 ≤ 22.5
[16] = 3% pregnancy rate, BMI >22.5 ≤ 27.5
[17] = 3% pregnancy rate, BMI >27.5 ≤ 32.5
[18] = 3% pregnancy rate, BMI >32.5 ≤ 37.5
[19] = 3% pregnancy rate, BMI >37.5 ≤ 42.5
[20] = 3% pregnancy rate, BMI >42.5 ≤ 47.5
[21] = 3% pregnancy rate, BMI >47.5 ≤ 52.5
[22] = 3% pregnancy rate, weight 90 ≥ W <120 lbs
[23] = 3% pregnancy rate, weight 120 ≥ W <150 lbs
[24] = 3% pregnancy rate, weight 150 ≥ W <180 lbs
[25] = 3% pregnancy rate, weight 180 ≥ W <210 lbs
[26] = 3% pregnancy rate, weight 210 ≥ W <240 lbs
[27] = 3% pregnancy rate, weight 240 ≥ W <270 lbs
[28] = 3% pregnancy rate, weight 270 ≥ W lbs

Compound: C#C[C@]1(O)CC[C@H]2[C@@H]3CCC4=CC(=O)CC[C@@H]4[C@H]3CC[C@@]21CC [LNG, levonorgestrel]
- LNG Level [1]: 74.7 µg/day
- Required Dose [1]: 192 µg/day
- LNG Level [2]: 52.7 µg/day
- Required Dose [2]: 273 µg/day
- LNG Level [3]: 67.1 µg/day
- Required Dose [3]: 215 µg/day
- LNG Level [4]: 41.1 µg/day
- Required Dose [4]: 350 µg/day
- LNG Level [5]: 26.6 µg/day
- Required Dose [5]: 541 µg/day
- LNG Level [6]: 38.9 µg/day
- Required Dose [6]: 370 µg/day
- LNG Level [7]: 25.6 µg/day
- Required Dose [7]: 563 µg/day
- LNG Level [8]: 120.0 µg/day
- Required Dose [8]: 120 µg/day
- LNG Level [9]: 67 µg/day and 66.9 µg/day
- Required Dose [9]: 215 µg/day and 210 µg/day
- LNG Level [10]: 46.1 µg/day
- Required Dose [10]: 312 µg/day
- LNG Level [11]: 39.6 µg/day
- Required Dose [11]: 364 µg/day
- LNG Level [12]: 45.4 µg/day
- Required Dose [12]: 317 µg/day
- LNG Level [13]: 31.5 µg/day
- Required Dose [13]: 457 µg/day
- LNG Level [14]: 34.1 µg/day
- Required Dose [14]: 422 µg/day
- LNG Level [15]: 152.0 µg/day
- Required Dose [15]: 95 µg/day
- LNG Level [16]: 106.9 µg/day
- Required Dose [16]: 135 µg/day
- LNG Level [17]: 136.1 µg/day
- Required Dose [17]: 106 µg/day
- LNG Level [18]: 83.3 µg/day
- Required Dose [18]: 173 µg/day
- LNG Level [19]: 53.8 µg/day
- Required Dose [19]: 267 µg/day
- LNG Level [20]: 79 µg/day
- Required Dose [20]: 182 µg/day
- LNG Level [21]: 51.8 µg/day
- Required Dose [21]: 278 µg/day
- LNG Level [22]: 241.7 µg/day
- Required Dose [22]: 59 µg/day
- LNG Level [23]: 135.6 µg/day
- Required Dose [23]: 104 µg/day
- LNG Level [24]: 93.5 µg/day
- Required Dose [24]: 154 µg/day
- LNG Level [25]: 80.3 µg/day
- Required Dose [25]: 179 µg/day
- LNG Level [26]: 92.0 µg/day
- Required Dose [26]: 156 µg/day
- LNG Level [27]: 63.8 µg/day
- Required Dose [27]: 226 µg/day
- LNG Level [28]: 69.2 µg/day
- Required Dose [28]: 208 µg/day
- LNG Required Dose (BMI >17.5 ≤ 22.5): 95 to 192 µg/day
- LNG Required Dose (BMI >22.5 ≤ 27.5): 135 to 273 µg/day
- LNG Required Dose (BMI >27.5 ≤ 32.5): 106 to 215 µg/day
- LNG Required Dose (BMI >32.5 ≤ 37.5): 173 to 350 µg/day
- LNG Required Dose (BMI >37.5 ≤ 42.5): 267 to 541 µg/day
- LNG Required Dose (BMI >42.5 ≤ 47.5): 182 to 370 µg/day
- LNG Required Dose (BMI >47.5 ≤ 52.5): 278 to 563 µg/day
